Test [1] concerns the target T1, EGFR TMLR (T790M/L858R), H1975 cell line (Homo sapiens, UniProt P00533, L858R/T790M).
T1 construct: H1975 cell line (CRL-5908; Lot BA70803) was obtained from American Type Culture Collection; host or cells: H1975
Put plainly: HTRF Phospho EGFR TMLR Assay (Cellular). To be noted: H1975 cells, 16 hours compound incubation. Type of test: cell-based. The method, then: HTRF Phospho EGFR TMLR Assay (Cellular)
H1975 cell line (CRL-5908; Lot BA70803) was obtained from American Type Culture Collection (Manassas, Va., USA). Cells were maintained at 37° C., 5% CO2 in complete Media RPMI 1640 without phenol red containing 0.3 mg/ml glutamine, 100 IU/ml penicillin, and […] streptomycin (Gibco, 15140-122) supplemented with 10% fetal bovine serum (FBS, Gibco, 10091-148). Compounds were diluted into starving medium RPMI 1640 Media (Gibco, 11835-030) without phenol red containing 0.3 mg/ml glutamine, 100 IU/ml penicillin, and […] streptomycin (Gibco).
Cells were cultured for 24 h in a 384-well plate (Greiner Bio-One, Nr. 784-080; 5000 cells/well) using 8 μl of complete medium/well. Then 4 μl/well of the 3× compound solution, containing a factor 3 dilution series of the compound or DMSO in starving medium, were added to the cells (final DMSO 0.33%). After 16 hours at 37° C., 5% CO2, 95% rel. humidity cells were lysed by adding to the compound mix 4 μl/well of the supplemented lysis buffer (Cis-bio, Phospho-EGFR HTRF kit, 64EG1PEH), followed by incubation for 30 min at room temperature with shaking (400 rpm). Then 4 μl of a mixture of anti-Phospho-EGFR Cryptate and of anti-Phospho-EGFR-d2 antibody solutions prepared in the detection buffer was added. The plates were then incubated for 4 h at room temperature before reading the fluorescence emission at 620 and 665 nm using an Envision reader (Perkin Elmer).
In general terms: In TR-FRET formats the signal depends on donor and acceptor labels being close together.

In test [2] the target is T2, EGFR TMLRCS (T790M/L858R/C797S), BaF3-TMLRCS cell line (Homo sapiens, UniProt P00533, C797S/L858R/T790M).
T2 construct: host or cells: BaF3
As to the kind of experiment: HTRF Phospho EGFR TMLRCS Assay (Cellular). It is filed as cell-based. To be noted: BaF3-TMLRCS cells, 4 hours compound incubation. How it is done:
HTRF Phospho EGFR TMLRCS Assay (Cellular)
BaF3-TMLRCS cell line were obtained from Crownbio (San Diego, Calif., USA). Cells were maintained at 37° C., 5% CO2 in RPMI ATCC (Gibco 31870) +2mM Glutamine+0.5 μg/ml Puromycin supplemented with 10% fetal bovine serum (FBS) (Gibco).
Cells are transferred as above to Greiner Bio-One, Nr. 784-08 micro-titerplate at 20000 cells/well in 12.5 μl of growth medium/well after the plates had been pre-filled with 12.5 nl of DMSO solutions of the to be tested compounds (in dose response) or DMSO only. After spinning the plates at 300×g for 30 seconds the cells were incubated for 4 hours at 37 C, 5% CO2, 95% humidity. The cells were lysed by adding to the compound mix 4 μl/well of the supplemented lysis buffer (Cis-bio, Phospho-EGFR HTRF kit, 64EG1PEH), followed by incubation for 30 min at room temperature with shaking (400 rpm). The plates were then frozen and stored overnight at −80 C. On the next day and after thawing the plates, 4 μl of a mixture of anti-Phospho-EGFR Cryptate and of anti-Phospho-EGFR-d2 antibody solutions prepared in the supplied detection buffer was added to each well. The lidded plates were then incubated for 4 h at room temperature before reading the fluorescence emission at 616 and 665 nm using an Envision reader (Perkin Elmer). Data was analyzed in similar fashion as above using the normalized ratio of the 665 to 616 signals multiplied by 10000.

In patent US20220315593A1, “EGFR INHIBITORS FOR THE TREATMENT OF CANCER” (Hoffmann-La Roche Inc., priority 2019, published 2022) one finds IC50 data, which are given here for 6 compounds.

The structures appear in SMILES notation.

T1 sequence (P00533 25-1210 T790M/L858R): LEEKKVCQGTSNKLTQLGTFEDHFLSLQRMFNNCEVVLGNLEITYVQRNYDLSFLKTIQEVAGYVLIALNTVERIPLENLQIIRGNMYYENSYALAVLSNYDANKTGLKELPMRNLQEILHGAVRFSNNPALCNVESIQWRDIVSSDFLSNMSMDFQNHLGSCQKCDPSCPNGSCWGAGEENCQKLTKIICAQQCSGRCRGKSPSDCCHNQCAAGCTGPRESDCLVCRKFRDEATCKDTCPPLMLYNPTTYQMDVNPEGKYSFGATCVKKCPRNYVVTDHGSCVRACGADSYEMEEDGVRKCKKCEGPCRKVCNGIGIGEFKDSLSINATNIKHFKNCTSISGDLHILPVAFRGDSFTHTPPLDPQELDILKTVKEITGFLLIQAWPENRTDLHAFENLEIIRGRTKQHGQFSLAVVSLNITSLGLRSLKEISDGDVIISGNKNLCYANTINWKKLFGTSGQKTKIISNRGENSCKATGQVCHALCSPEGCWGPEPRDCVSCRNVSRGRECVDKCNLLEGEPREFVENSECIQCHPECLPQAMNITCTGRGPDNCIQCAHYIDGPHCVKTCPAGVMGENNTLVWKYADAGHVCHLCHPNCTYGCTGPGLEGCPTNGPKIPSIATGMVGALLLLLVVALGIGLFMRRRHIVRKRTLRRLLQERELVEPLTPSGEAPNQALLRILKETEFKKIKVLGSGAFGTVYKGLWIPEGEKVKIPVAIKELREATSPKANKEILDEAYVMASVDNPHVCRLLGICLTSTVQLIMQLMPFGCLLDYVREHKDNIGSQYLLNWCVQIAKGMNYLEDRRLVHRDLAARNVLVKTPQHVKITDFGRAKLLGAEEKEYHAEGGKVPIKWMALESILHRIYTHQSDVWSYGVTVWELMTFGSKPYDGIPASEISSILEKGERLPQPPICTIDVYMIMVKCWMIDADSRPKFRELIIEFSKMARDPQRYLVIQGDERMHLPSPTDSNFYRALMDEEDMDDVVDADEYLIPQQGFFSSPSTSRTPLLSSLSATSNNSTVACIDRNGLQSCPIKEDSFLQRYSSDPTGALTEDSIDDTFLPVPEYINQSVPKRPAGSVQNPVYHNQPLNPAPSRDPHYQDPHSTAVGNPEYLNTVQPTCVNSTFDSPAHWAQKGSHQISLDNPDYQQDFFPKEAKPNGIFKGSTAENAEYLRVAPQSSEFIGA
T2 sequence (P00533 25-1210 T790M/C797S/L858R): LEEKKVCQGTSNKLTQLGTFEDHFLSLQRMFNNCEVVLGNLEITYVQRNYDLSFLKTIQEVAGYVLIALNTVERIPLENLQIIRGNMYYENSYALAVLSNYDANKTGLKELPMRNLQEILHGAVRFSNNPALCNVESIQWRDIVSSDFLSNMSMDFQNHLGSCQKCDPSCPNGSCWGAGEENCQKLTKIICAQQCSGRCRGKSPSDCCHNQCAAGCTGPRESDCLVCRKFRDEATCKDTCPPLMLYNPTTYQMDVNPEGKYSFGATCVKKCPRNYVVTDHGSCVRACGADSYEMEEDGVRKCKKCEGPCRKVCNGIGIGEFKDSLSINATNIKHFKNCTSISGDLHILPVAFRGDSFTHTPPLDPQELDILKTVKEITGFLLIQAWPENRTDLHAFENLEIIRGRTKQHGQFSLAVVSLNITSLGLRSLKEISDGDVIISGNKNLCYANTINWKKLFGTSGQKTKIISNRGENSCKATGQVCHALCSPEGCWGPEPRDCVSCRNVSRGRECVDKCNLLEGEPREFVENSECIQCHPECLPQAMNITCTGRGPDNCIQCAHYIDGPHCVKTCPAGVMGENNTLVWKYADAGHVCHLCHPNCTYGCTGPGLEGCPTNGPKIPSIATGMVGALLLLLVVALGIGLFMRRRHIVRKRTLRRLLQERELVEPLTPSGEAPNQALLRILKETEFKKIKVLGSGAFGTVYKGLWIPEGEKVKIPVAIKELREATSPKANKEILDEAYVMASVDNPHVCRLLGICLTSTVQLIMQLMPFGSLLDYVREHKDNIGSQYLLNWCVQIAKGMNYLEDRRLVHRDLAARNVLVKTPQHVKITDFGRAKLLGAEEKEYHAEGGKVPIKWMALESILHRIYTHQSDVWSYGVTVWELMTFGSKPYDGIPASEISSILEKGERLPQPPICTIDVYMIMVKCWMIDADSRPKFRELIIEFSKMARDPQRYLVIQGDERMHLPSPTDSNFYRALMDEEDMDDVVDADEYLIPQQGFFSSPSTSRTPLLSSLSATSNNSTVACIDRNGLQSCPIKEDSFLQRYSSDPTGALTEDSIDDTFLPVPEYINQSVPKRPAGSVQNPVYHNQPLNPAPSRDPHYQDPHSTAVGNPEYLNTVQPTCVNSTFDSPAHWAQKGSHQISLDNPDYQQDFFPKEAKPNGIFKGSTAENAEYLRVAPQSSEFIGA

In general, IC50 refers to the concentration that inhibits the measured activity by half. Lower therefore signals greater potency in that assay. Regarding `O=C(Nc1nccs1)C(c1ncn2c1CCC2)n1cc2c(F)cc(-c3ccc(N4CCOCC4)c(F)c3)cc2n1` (stereo not drawn) [Example 11, 2-(6,7-Dihydro-5H-pyrrolo[1,2-c]imidazol-1-yl)-2-(4-fluoro-6-(3-fluoro-4-morpholinophenyl)-2H-indazol-2-yl)-N-(thiazol-2-yl)acetamide], the concentration for half-maximal inhibition (IC50) in test [1] amounted to 1 nM. Turning to `O=C(Nc1nccs1)C(c1ncn2c1CCC2)n1cc2c(Cl)cc(-c3ccc(N4CCOCC4)cc3)c(Cl)c2n1` (stereo not drawn) [Example 14, 2-(4,7-Dichloro-6-(4-morpholinophenyl)-2H-indazol-2-yl)-2-(6,7-dihydro-5H-pyrrolo[1,2-c]imidazol-1-yl)-N-(thiazol-2-yl)acetamide], the figures for the IC50 in test [1] and in test [2] were 3 nM and 22 nM, respectively.

Regarding `O=C(Nc1nccs1)C(c1ncn2c1CCC2)n1cc2c(Cl)cc(-c3ccc(N4CCOCC4)cc3)c(F)c2n1` (stereo not drawn) [Example 10, 2-(4-Chloro-7-fluoro-6-(4-morpholinophenyl)-2H-indazol-2-yl)-2-(6,7-dihydro-5H-pyrrolo[1,2-c]imidazol-1-yl)-N-(thiazol-2-yl)acetamide], in test [1], the half-maximal inhibitory concentration (IC50) turned out to be 1 nM. `O=C(Nc1nccs1)C(c1ncn2c1C[C@@H](F)C2)n1cc2c(F)cc(-c3ccc(N4CCOCC4)c(F)c3)cc2n1` (stereo partly drawn) [Example 5, 2-((R)-6-Fluoro-6,7-dihydro-5H-pyrrolo[1,2-c]imidazol-1-yl)-2-(4-fluoro-6-(3-fluoro-4-morpholinophenyl)-2H-indazol-2-yl)-N-(thiazol-2-yl)acetamide]: the IC50 is 1 nM in test [1] and 5 nM in test [2]. Taken in the same sequence, the figures for `COc1c(-c2ccc(N3CCOCC3)cc2)cc(Cl)c2cn(C(C(=O)Nc3nccs3)c3ncn4c3C[C@@H](F)C4)nc12` (mixture of isomers) [Example 19, 2-[4-Chloro-7-methoxy-6-(4-morpholin-4-ylphenyl)indazol-2-yl]-2-[rac-(6R)-6-fluoro-6,7-dihydro-5H-pyrrolo[1,2-c]imidazol-1-yl]-N-(1,3-thiazol-2-yl)acetamide] were 1 nM and 7 nM. In test [1], `O=C(Nc1nccs1)C(c1ncn2c1CCC2)n1cc2c(Cl)cc(-c3ccc(N4CCOCC4)c(F)c3)c(F)c2n1` (stereo not drawn) [Example 17, 2-(4-Chloro-7-fluoro-6-(3-fluoro-4-morpholinophenyl)-2H-indazol-2-yl)-2-(6,7-dihydro-5H-pyrrolo[1,2-c]imidazol-1-yl)-N-(thiazol-2-yl)acetamide] registered a half-maximal inhibitory concentration (IC50) of 2 nM.
